Measured values from patent EP4635500A1, “THERAPEUTIC AGENT FOR BACTERIAL INFECTION” (Sumitomo Pharma Co., Ltd., priority 2022, dated 2024).
Converted amounts (≈) assume the structure as drawn. Read-outs that look alike come from different tables or passages of the source.

System: P. aeruginosa
Experiment: MIC, broth microdilution, CDC/FDA Antibiotic Resistance Isolate Bank (Example 7, Tables 10, 15)
Type: cell-based
Settings: for MIC: Pseudomonas aeruginosa, read-out: MIC
[1] = 26 metallo-carbapenemase-producing P. aeruginosa strains, β-lactamase inhibitor µg/mL in parentheses
[2] = 96 strains of P. aeruginosa, β-lactamase inhibitor µg/mL in parentheses

With `NCC[C@H](O)C(=O)N[C@@H]1C[C@H](N)[C@@H](O[C@H]2O[C@H](CN)[C@@H](O)[C@H](O)[C@H]2O)[C@H](O)[C@H]1O[C@H]1O[C@H](CO)[C@@H](O)[C@H](N)[C@H]1O` [Amikacin, amikacin] the “MIC against 26 metallo-carbapenemase-producing strains MIC50” value [1] was >64 µg(mL), the “MIC against 26 metallo-carbapenemase-producing strains MIC90” value [1] was >64 µg(mL) and the “MIC against 96 strains of P. aeruginosa MIC50” value [2] was 8 µg(mL). For the same compound, the “MIC against 96 strains of P. aeruginosa MIC90” value [2] was >64 µg(mL), the MIC (P. aeruginosa KUB No. 579, AR Bank # 447) was 8 µg/mL (≈ 13.7 µM) and the MIC (P. aeruginosa KUB No. 5083, AR Bank # 250) was greater than 64 µg/mL. The MIC (P. aeruginosa KUB No. 5551, AR Bank # 54) was 4 µg/mL (≈ 6.83 µM), the MIC (P. aeruginosa KUB No. 5561, AR Bank # 64) was 1 µg/mL (≈ 1.71 µM) and the MIC (P. aeruginosa KUB No. 5587, AR Bank # 90) was 32 µg/mL (≈ 54.6 µM). For the same compound, the MIC (P. aeruginosa KUB No. 5589, AR Bank # 92) was greater than 64 µg/mL, the MIC (P. aeruginosa KUB No. 5591, AR Bank # 94) was 32 µg/mL (≈ 54.6 µM) and the MIC (P. aeruginosa KUB No. 5592, AR Bank # 95) was 0.5 µg/mL (≈ 0.854 µM). The MIC (P. aeruginosa KUB No. 5597, AR Bank # 100) was greater than 64 µg/mL, the MIC (P. aeruginosa KUB No. 5600, AR Bank # 103) was 32 µg/mL (≈ 54.6 µM) and the MIC (P. aeruginosa KUB No. 5602, AR Bank # 105) was 8 µg/mL (≈ 13.7 µM). The MIC (P. aeruginosa KUB No. 5605, AR Bank # 108) was greater than 64 µg/mL, the MIC (P. aeruginosa KUB No. 5607, AR Bank # 110) was greater than 64 µg/mL and the MIC (P. aeruginosa KUB No. 5608, AR Bank # 111) was greater than 64 µg/mL. The MIC (P. aeruginosa KUB No. 5662, AR Bank # 229) was 16 µg/mL (≈ 27.3 µM), the MIC (P. aeruginosa KUB No. 5663, AR Bank # 230) was greater than 64 µg/mL and the MIC (P. aeruginosa KUB No. 5664, AR Bank # 231) was 8 µg/mL (≈ 13.7 µM). The MIC (P. aeruginosa KUB No. 5665, AR Bank # 232) was 8 µg/mL (≈ 13.7 µM), the MIC (P. aeruginosa KUB No. 5666, AR Bank # 23) was 4 µg/mL (≈ 6.83 µM) and the MIC (P. aeruginosa KUB No. 5667, AR Bank # 234) was 8 µg/mL (≈ 13.7 µM). For the same compound, the MIC (P. aeruginosa KUB No. 5668, AR Bank # 235) was 64 µg/mL (≈ 109 µM), the MIC (P. aeruginosa KUB No. 5669, AR Bank # 236) was 8 µg/mL (≈ 13.7 µM) and the MIC (P. aeruginosa KUB No. 5670, AR Bank # 237) was 2 µg/mL (≈ 3.42 µM). It also gave an MIC (P. aeruginosa KUB No. 5671, AR Bank # 238) of 4 µg/mL (≈ 6.83 µM), an MIC (P. aeruginosa KUB No. 5672, AR Bank # 239) greater than 64 µg/mL and an MIC (P. aeruginosa KUB No. 5673, AR Bank # 240) of 64 µg/mL (≈ 109 µM). For the same compound, the MIC (P. aeruginosa KUB No. 5674, AR Bank # 241) was 32 µg/mL (≈ 54.6 µM), the MIC (P. aeruginosa KUB No. 5675, AR Bank # 242) was 64 µg/mL (≈ 109 µM) and the MIC (P. aeruginosa KUB No. 5676, AR Bank # 243) was 32 µg/mL (≈ 54.6 µM). For the same compound, the MIC (P. aeruginosa KUB No. 5677, AR Bank # 244) was 8 µg/mL (≈ 13.7 µM), the MIC (P. aeruginosa KUB No. 5678, AR Bank # 245) was greater than 64 µg/mL and the MIC (P. aeruginosa KUB No. 5679, AR Bank # 246) was greater than 64 µg/mL. It also gave an MIC (P. aeruginosa KUB No. 5680, AR Bank # 247) of 4 µg/mL (≈ 6.83 µM), an MIC (P. aeruginosa KUB No. 5681, AR Bank # 248) of 64 µg/mL (≈ 109 µM) and an MIC (P. aeruginosa KUB No. 5682, AR Bank # 249) greater than 64 µg/mL. The MIC (P. aeruginosa KUB No. 5684, AR Bank # 251) was 8 µg/mL (≈ 13.7 µM), the MIC (P. aeruginosa KUB No. 5685, AR Bank # 252) was 0.5 µg/mL (≈ 0.854 µM) and the MIC (P. aeruginosa KUB No. 5687, AR Bank # 254) was greater than 64 µg/mL. For the same compound, the MIC (P. aeruginosa KUB No. 5688, AR Bank # 255) was greater than 64 µg/mL, the MIC (P. aeruginosa KUB No. 5689, AR Bank # 256) was 2 µg/mL (≈ 3.42 µM) and the MIC (P. aeruginosa KUB No. 5690, AR Bank # 257) was 8 µg/mL (≈ 13.7 µM). For the same compound, the MIC (P. aeruginosa KUB No. 5691, AR Bank # 258) was 4 µg/mL (≈ 6.83 µM), the MIC (P. aeruginosa KUB No. 5692, AR Bank # 259) was 2 µg/mL (≈ 3.42 µM) and the MIC (P. aeruginosa KUB No. 5693, AR Bank # 260) was 64 µg/mL (≈ 109 µM). For the same compound, the MIC (P. aeruginosa KUB No. 5694, AR Bank # 261) was 16 µg/mL (≈ 27.3 µM), the MIC (P. aeruginosa KUB No. 5695, AR Bank # 262) was 4 µg/mL (≈ 6.83 µM) and the MIC (P. aeruginosa KUB No. 5696, AR Bank # 263) was 32 µg/mL (≈ 54.6 µM). The MIC (P. aeruginosa KUB No. 5697, AR Bank # 264) was 2 µg/mL (≈ 3.42 µM), the MIC (P. aeruginosa KUB No. 5698, AR Bank # 265) was 8 µg/mL (≈ 13.7 µM) and the MIC (P. aeruginosa KUB No. 5699, AR Bank # 266) was 8 µg/mL (≈ 13.7 µM). For the same compound, the MIC (P. aeruginosa KUB No. 5700, AR Bank # 267) was 16 µg/mL (≈ 27.3 µM), the MIC (P. aeruginosa KUB No. 5701, AR Bank # 268) was 8 µg/mL (≈ 13.7 µM) and the MIC (P. aeruginosa KUB No. 5702, AR Bank # 269) was 4 µg/mL (≈ 6.83 µM). The MIC (P. aeruginosa KUB No. 5703, AR Bank # 270) was 16 µg/mL (≈ 27.3 µM), the MIC (P. aeruginosa KUB No. 5704, AR Bank # 271) was 4 µg/mL (≈ 6.83 µM) and the MIC (P. aeruginosa KUB No. 5705, AR Bank # 272) was 4 µg/mL (≈ 6.83 µM). For the same compound, the MIC (P. aeruginosa KUB No. 5747, AR Bank # 351) was 64 µg/mL (≈ 109 µM), the MIC (P. aeruginosa KUB No. 5748, AR Bank # 352) was 4 µg/mL (≈ 6.83 µM) and the MIC (P. aeruginosa KUB No. 5749, AR Bank # 353) was 64 µg/mL (≈ 109 µM). The MIC (P. aeruginosa KUB No. 5750, AR Bank # 354) was 8 µg/mL (≈ 13.7 µM), the MIC (P. aeruginosa KUB No. 5751, AR Bank # 355) was 8 µg/mL (≈ 13.7 µM) and the MIC (P. aeruginosa KUB No. 5752, AR Bank # 356) was 2 µg/mL (≈ 3.42 µM). It also gave an MIC (P. aeruginosa KUB No. 5753, AR Bank # 357) greater than 64 µg/mL, an MIC (P. aeruginosa KUB No. 5754, AR Bank # 358) of 4 µg/mL (≈ 6.83 µM) and an MIC (P. aeruginosa KUB No. 5755, AR Bank # 359) of 4 µg/mL (≈ 6.83 µM). It also gave an MIC (P. aeruginosa KUB No. 5756, AR Bank # 360) of 4 µg/mL (≈ 6.83 µM), an MIC (P. aeruginosa KUB No. 5785, AR Bank # 439) greater than 64 µg/mL and an MIC (P. aeruginosa KUB No. 5786, AR Bank # 440) of 8 µg/mL (≈ 13.7 µM). For the same compound, the MIC (P. aeruginosa KUB No. 5787, AR Bank # 441) was 2 µg/mL (≈ 3.42 µM), the MIC (P. aeruginosa KUB No. 5788, AR Bank # 443) was 64 µg/mL (≈ 109 µM) and the MIC (P. aeruginosa KUB No. 5789, AR Bank # 444) was greater than 64 µg/mL. The MIC (P. aeruginosa KUB No. 5790, AR Bank # 445) was 64 µg/mL (≈ 109 µM) and the MIC (P. aeruginosa KUB No. 5793, AR Bank # 449) was 8 µg/mL (≈ 13.7 µM).
